For test [1], the system named is HepG2 (Hepatocellular Carcinoma). Description: Cellular Proliferation Assay, cell line E. The class given is cell-based. The conditions noted are these: Homo sapiens; HepG2, 72 hours, CelltiterBlue; read-out: Cell Line E antiproliferative IC50. The procedure:
(§1) The assay for determination of the antiproliferative activity of multiple Pim inhibitors in the JAK2-driven cell lines was conducted as follows. Cells were plated out to 96-well plates at an initial density of 10,000 cells/well in 95 pt. Compounds were prepared at […] in DMSO by conducting 3-fold serial dilutions to give a 10-point dosing curve having a high dose of 1000 μM. Aliquots (5 μt) of these dilutions were then transferred to the appropriate wells of the 96-well plates containing cells to yield a final DMSO concentration of 0.5%. The cells were then incubated with compound for 72 hours at 37° C., 5% CO2. CelltiterBlue reagent (Promega, Catalog #: G8080) was then added (20 μL/well) and incubated at 37° C., 5% CO2 for 1-8 hours depending on the cell line being analyzed. The plate was then quantified employing a fluorescence plate reader (Model: Gemini [Molecular Devices]; Settings: 560 nm (Ex)/590 nm (Em) 570 nm (cut-off) [CellTiter Blue Assay].
(§2) The values for each well were then converted to a percent of untreated control (POC). These POC values were then plotted as a function of compound concentration. A 4-parameter curve-fit analysis was performed for each compound dilution and an IC50 value was calculated from this curve.
(§3) Cell lines • A: PC3 (Androgen independent prostate cancer) • B: K562 (Ph+chronic myelogenous leukemia) • C: MV4-11 (Acute myelogenous leukemia) • D: BxPC3 (Pancreatic Cancer) • E: HepG2 (Hepatocellular Carcinoma) • F: BaF3 (Mouse pro-B-cell line) • G: BaF3 TEL-JAK2 (Mouse pro-B-cell transformed with TEL-JAK2 fusion) • H: BaF2 BCR-Ab1 (Mouse pro-B-cell transformed with BCR-Ab1 fusion)
Background: The colour change of resazurin is a common sign of viable cells or microbes.

Test [2] deals with CD4+ T cells. In words: T Cell in vitro Functional Assay (B): IL-2 production. The class given is cell-based. The conditions noted are these: Mus musculus, anti-CD3/anti-CD28, 40 hours, ELISA. The procedure:
(§4) The in vitro assays to assess the effects of the compounds of Examples 16, 18 and 26 on T cells were conducted as described in assays A, B, C and D below. CD4+ T cells were isolated from red blood cell-depleted splenocytes of C57B1/6J mice (Jackson Laboratories, catalog #000664) using CD4+ T cell isolation kit (Miltenyi, catalog #130-090-860).
(§5) In assay (A), purified CD4+ T cells were plated in 96 well plates at 90000 cells/well in 90 μL. A dilution series of the compounds of Examples 16, 18 and 26 were prepared at 100× the final concentration in DMSO and then diluted 10-fold into complete media (10× stocks). 10 μL of 10×compound stocks were added to appropriate wells of 96 well plates containing cells and incubated for 1 hour at 37° C., 5% CO2. The cell/compound mixtures were then transferred to a 96 well plate coated with anti-CD3 mAb (1 μg/mL; BD Pharmingen, catalog #553057) and soluble anti-CD28 mAb (1 μg/mL; BD Pharmingen, catalog #553294) was added. Plates were cultured at 37° C., 5% CO2 for 40 hours. 20 μL of the culture were removed for determination of proliferation using the CellTitre-Glo™ luminescent assay (Promega, Catalog #G7571) according to the manufacturer's protocol. The plate was quantified on a Packard TopCount instrument using luminescence protocol and data was analyzed using Prism software.
In assay (B), purified CD4+ cells were treated with compound and stimulated as described for assay (A). After 40 hours, supernatants were assayed for IL-2 using R&D duo set ELISA kits (catalog #DY402). ELISA plates were quantified relative to a standard curve using Molecular Devices Versamax Reader at […] and Softmax Pro software.
(§6) For each of assays A, B, C and D, the values for each well were converted to a percent of vehicle-treated (DMSO) control (POC). These POC values were plotted as a function of compound concentration and an IC50 calculated using a 4-parameter curve-fit analysis program.
In general terms: In an ELISA, binding on a coated surface is turned into a signal by an enzyme label.

Test [3] has as its target GST-tagged recombinant full-length human PIM-2 (Homo sapiens (Human), UniProt Q9P1W9). In words: PIM-2 Enzyme Assay. As to conditions: read-out: PIM-2 IC50; 4 μM ATP, […] PIM-2.
Protocol: The amount of radiolabeled product is then measured by liquid scintillation counting. The final buffer conditions were as follows: 20 mM K^+MOPS, pH 7.4, 10 mM MgCl2, 0.005% Tween-20, 1 mM DTT. […] Incubations were carried out for 60 min at 22° C. and quenched with 75 μL of 200 mM H3PO4, filtered through a Whatman P81 plate and washed (1×200 μL and 5×100 μL ) with 200 mM H3PO4. Liquid scintillation cocktail (50 μL ) was then added per well, and the plate was counted for 30 s/well using a TopCount NXT.
One-μL aliquots of these were then transferred to the assay mixtures above to give a final concentration of DMSO of 2%. […] For each plate, percent of control (POC) values were calculated for each well. IC50's were estimated from the POC's using a standard 4-parameter logistic model. The IC50 is defined as the concentration of inhibitor at which the POC equals 50 for the fitted curve.
For test [4], the system named is CD4+ T cells. Description: T Cell in vitro Functional Assay (A): proliferation. The class given is cell-based. The conditions noted are these: Mus musculus, anti-CD3/anti-CD28, 40 hours. The procedure: as §4, §5, §6
In test [5] the test system is BxPC3 (Pancreatic Cancer). Description: Cellular Proliferation Assay, cell line D. The conditions noted are these: Homo sapiens, BXPC-3; BxPC3, 72 hours, CelltiterBlue; read-out: Cell Line D antiproliferative IC50. The class given is cell-based. The procedure: as §1, §2, §3
Test [6] relates to BaF2 BCR-Ab1 (Mouse pro-B-cell transformed with BCR-Ab1 fusion). Description: Cellular Proliferation Assay, cell line H. The class given is cell-based. As to conditions: BaF2 BCR-Ab1, 72 hours, CelltiterBlue, read-out: Cell Line H antiproliferative IC50. How it is done:
as §1, §2, §3

The next test concerns the target PIM-1 (Homo sapiens (Human), UniProt P11309). Description: PIM-1 Enzyme Assay. The class given is biochemical. The procedure, abridged: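 Radiometric kinase assay in 20 mM K+MOPS pH 7.4, 10 mM MgCl2, 0.005% Tween-20, 1 mM DTT, 2% DMSO final; 60 min at 22° C, stopped with H3PO4, product captured on P81 filter and counted by scintillation. IC50 from 4-parameter logistic fit of percent of control.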

The subject of test [7] is MV4-11 (Acute myelogenous leukemia). Description: Cellular Proliferation Assay, cell line C. As to conditions: Homo sapiens; MV4-11, 72 hours, CelltiterBlue; read-out: Cell Line C antiproliferative IC50. The class given is cell-based. The procedure: as §1
The values for each well were then converted to a percent of untreated control (POC). These POC values were then plotted as a function of compound concentration. A 4-parameter curve-fit analysis was performed for each compound dilution and an IC50 value was calculated from this curve. […]

Data on three compounds can be found in US8575145B2, “Triazolopyridine compounds as PIM kinase inhibitors” (Array BioPharma Inc., priority 2008, dated 2013).

SMILES strings stand for the structures. Where a name gives a salt, the structure may show the parent alone. Read-outs that look alike come from different tables or passages of the source. A value given as a limit tells only on which side of the number the result lay.

Usually IC50 stands for the concentration at which inhibition is half-maximal.

GST-tagged recombinant full-length human PIM-2, sequence (Q9P1W9 whole entry): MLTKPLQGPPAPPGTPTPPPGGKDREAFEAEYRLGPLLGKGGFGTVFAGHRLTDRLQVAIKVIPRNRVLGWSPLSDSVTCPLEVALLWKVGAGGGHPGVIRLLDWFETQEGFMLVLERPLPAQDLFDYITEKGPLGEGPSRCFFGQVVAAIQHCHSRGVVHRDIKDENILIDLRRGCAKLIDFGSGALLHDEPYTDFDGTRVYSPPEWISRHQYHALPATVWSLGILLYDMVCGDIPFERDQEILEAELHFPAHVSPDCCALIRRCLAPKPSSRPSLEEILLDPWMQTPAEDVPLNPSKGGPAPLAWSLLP
PIM-1, sequence (P11309 whole entry, species assumed): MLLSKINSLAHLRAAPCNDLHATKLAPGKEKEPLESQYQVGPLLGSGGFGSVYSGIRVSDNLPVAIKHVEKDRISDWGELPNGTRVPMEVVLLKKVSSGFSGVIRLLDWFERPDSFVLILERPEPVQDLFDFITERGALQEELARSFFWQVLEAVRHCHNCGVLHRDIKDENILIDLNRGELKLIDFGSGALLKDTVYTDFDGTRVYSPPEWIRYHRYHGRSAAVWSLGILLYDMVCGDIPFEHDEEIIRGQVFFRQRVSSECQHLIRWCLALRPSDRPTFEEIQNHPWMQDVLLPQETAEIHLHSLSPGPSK

For the compound `c1cc(OCC2CCCNC2)c2nc(-c3nnc4ccccn34)ccc2c1` (centres unmarked) [Example 16, 2-([1,2,4]Triazolo[4,3-a]pyridin-3-yl)-8-(piperidin-3-ylmethoxy)quinoline], the IC50 in test [1] is over 10000 nM; with CD4+ T cells [2] it was at most 1000 nM; in test [3], 169 nM; in the test with CD4+ T cells [4], at most 1000 nM; in test [5] it was over 10000 nM; in test [6], under 5000 nM. The same compound showed an IC50 on PIM-1 (35 μM ATP, 0.25 nM PIM-1) of 1 nM.
As for `F[C@@H]1CNCCC1Oc1cccc2ccc(-c3nnc4ccccn34)nc12` (stereo in doubt) [Example 26, 2-([1,2,4]triazolo[4,3-a]pyridin-3-yl)-8-((cis)-3-fluoropiperidin-4-yloxy)quinoline dihydrochloride], the IC50 in test [7] is under 2000 nM; in the test on CD4+ T cells [2] it was at most 5000 nM; in test [3], 137 nM; in the test on CD4+ T cells [4] it was at most 5000 nM; in test [6], under 2000 nM; on PIM-1, 3 nM.
In the case of `CC(C)(CN)COc1cccc2ccc(-c3nnc4ccccn34)nc12` [Example 18, 3-(2-([1,2,4]Triazolo[4,3-a]pyridin-3-yl)quinolin-8-yloxy)-2,2-dimethylpropan-1-amine], the IC50 in test [1] is under 10000 nM; in test [7] it was under 2000 nM; with CD4+ T cells [2], at most 1000 nM; in test [3], 49 nM; in the test on CD4+ T cells [4] it was at most 1000 nM; in test [5], under 10000 nM. Moreover, in test [6], the IC50 was under 2000 nM.
